Measured values: US20230346670A1, “Prebiotic Oral Care Compositions and Methods” (Colgate-Palmolive Company, priority 2020, published 2023)

What was measured:
Assay type in all cases: cell-based
[1] = system: human oral keratinocytes (HOK-18A); assay: Inflammatory mediator gene expression in keratinocytes exposed to substrate-treated biofilms (SYBR RT-qPCR); settings: for fold change in IL-1β gene expression, geometric mean (C.I.) / fold change in IL-6 gene expression, geometric mean (C.I.) / fold change in IL-8 gene expression, geometric mean (C.I.) / fold change in MMP-8 gene expression, geometric mean (C.I.) / fold change in TNF-α gene expression, geometric mean (C.I.): relative to control, n = 3
Experimental: Cultures of immortalized human oral keratinocytes (HOK-18A) are grown. […] The IL-8 levels in the cellular supernatant are determined as well. RNA is converted to cDNA and relative expression of inflammatory mediator genes is determined as described above with respect to the cellular housekeeping gene β-actin.
In HOKs exposed to substrate-treated (substrate concentrations of […]) multi-species biofilms, there are mostly decreases in inflammatory mediator gene expression as measured via SYBR RT-qPCR, the results of which are detailed in Table 7:
Fold changes in inflammatory mediator gene expression from human oral keratinocytes (HOK-18A) exposed to substrate-treated multi-species biofilms are determined relatively to the control through the 2^^-ΔΔCt method and are shown as the geometric mean (C.I.) (n = 3) of the 2^^-ΔΔCt values. All substrates are dissolved in PBS at a concentration of 1 M (upper part) or 1%(w/v) (lower part). Values between 0 and 1 represent relative downregulation, values >1 represent relative upregulation.

[2] = system: multi-species biofilm (beneficial/commensal species, periodontal pathogens, cariogenic pathogens); assay: Multi-species biofilm composition, relative proportions and group changes
Experimental: Biofilms are grown vertically on Calcium Deficient Hydroxyapatite (CAD-HA) disks (Hitemco Medical, Old Bethpage, USA) using the Amsterdam Active Adhesion model. […] After this 24 h, disks are rinsed 3 times a day for 3 minutes (RT, 250 rpm), for 3 consecutive days, by transferring the lid containing the disks to a new 24-well plate containing 2 mL/well of the appropriate substrate solution. As a negative control, PBS (pH 5.7) without substrate supplementation is used. N-acetyl-D-glucosamine (NADG), α-D-lactose, D-(+)-trehalose and D-(+)-raffinose are selected to determine their effects on multi-species biofilm composition. Repeated rinsing of the biofilms with the substrates at a concentration of 1 M results in a significant decrease in absolute numbers in at least four of the pathogenic bacterial species tested in the assay, in comparison to the control, the results of which are described in Table 1 below. Note, NADG decreased absolute numbers of S. sobrinus. Absolute abundances of bacterial species are shown as mean ± SD (n = 3) logarithmic values of the genome equivalents per millilitre (log(Geq/mL)).

[3] = system: A. naeslundii; assay: Multi-species biofilm composition, absolute abundance (Geq/mL); settings: repeated rinsing
Experimental: (§1) Biofilms are grown vertically on Calcium Deficient Hydroxyapatite (CAD-HA) disks (Hitemco Medical, Old Bethpage, USA) using the Amsterdam Active Adhesion model. Biofilms are allowed to establish during 24 h (37° C., 170 rpm) under microaerophilic conditions (6% O2, 7% CO2, 7% H2, 80% N2). After this 24 h, disks are rinsed 3 times a day for 3 minutes (RT, 250 rpm), for 3 consecutive days, by transferring the lid containing the disks to a new 24-well plate containing 2 mL/well of the appropriate substrate solution. As a negative control, PBS (pH 5.7) without substrate supplementation is used.
(§2) N-acetyl-D-glucosamine (NADG), α-D-lactose, D-(+)-trehalose and D-(+)-raffinose are selected to determine their effects on multi-species biofilm composition. Repeated rinsing of the biofilms with the substrates at a concentration of 1 M results in a significant decrease in absolute numbers in at least four of the pathogenic bacterial species tested in the assay, in comparison to the control, the results of which are described in Table 1 below. Note, NADG decreased absolute numbers of S. sobrinus. Absolute abundances of bacterial species are shown as mean ± SD (n = 3) logarithmic values of the genome equivalents per millilitre (log(Geq/mL)).

[4] = system: P. gingivalis; assay: as above; settings: repeated rinsing
Experimental: as §1, §2

[5] = system: P. intermedia; assay: as above; settings: repeated rinsing
Experimental: as §1, §2

[6] = system: S. gordonii; assay: as above; settings: repeated rinsing
Experimental: as §1, §2

[7] = system: S. sobrinus; assay: as above; settings: repeated rinsing
Experimental: as §1, §2

[8] = system: S. mitis; assay: as above; settings: repeated rinsing
Experimental: as §1, §2

[9] = system: S. oralis; assay: as above; settings: repeated rinsing
Experimental: as §1, §2

[10] = system: A. actinomycetemcomitans; assay: as above; settings: repeated rinsing
Experimental: as §1, §2

[11] = system: A. viscosus; assay: as above; settings: repeated rinsing
Experimental: as §1
(§3) N-acetyl-D-glucosamine (NADG), α-D-lactose, D-(+)-trehalose and D-(+)-raffinose are selected to determine their effects on multi-species biofilm composition. […] decrease in absolute numbers in at least four of the pathogenic bacterial species tested in the assay, in comparison to the control, the results of which are described in Table 1 below. Note, NADG decreased absolute numbers of S. sobrinus. Absolute abundances of bacterial species are shown as mean ± SD (n = 3) logarithmic values of the genome equivalents per millilitre (log(Geq/mL)).

[12] = system: S. sanguinis; assay: as above; settings: repeated rinsing
Experimental: as §1, §3

[13] = system: S. salivarius; assay: as above; settings: repeated rinsing
Experimental: as §1, §3

[14] = system: F. nucleatum; assay: as above; settings: repeated rinsing
Experimental: as §1, §3

[15] = system: S. mutans; assay: as above; settings: repeated rinsing
Experimental: as §1, §3

[16] = system: V. parvula; assay: as above; settings: for absolute abundance of V. parvula (VP), mean ± SD log (Geq/mL): repeated rinsing
Experimental: as §1, §3

[17] = HOK-18A exposed to biofilms treated with substrate 1% (w/v)
[18] = HOK-18A exposed to biofilms treated with substrate 1 M
[19] = Table 1a, substrate 1 M, listed as α-D-lactose
[20] = Table 3, separate experiments, concentration not given

OC[C@H]1O[C@@H](O[C@H]2[C@H](O)[C@@H](O)[C@@H](O)O[C@@H]2CO)[C@H](O)[C@@H](O)[C@H]1O [D-lactose, α-D-lactose]
fold change in IL-1β gene expression, geometric mean (C.I.) [1, 17]: 0.89 (0.54-1.45) fold
fold change in IL-6 gene expression, geometric mean (C.I.) [1, 17]: 0.74 (0.56-0.97)^∗ fold
fold change in IL-8 gene expression, geometric mean (C.I.) [1, 17]: 1.13 (0.71-1.80) fold
fold change in MMP-8 gene expression, geometric mean (C.I.) [1, 17]: 0.70 (0.62-0.79) fold
fold change in TNF-α gene expression, geometric mean (C.I.) [1, 17]: 0.81 (0.50-1.33) fold
fold change in IL-1β gene expression, geometric mean (C.I.) [1, 18]: 0.5 (0.38-0.65)^∗ fold
fold change in IL-6 gene expression, geometric mean (C.I.) [1, 18]: 0.33 (0.12-0.88)^∗ fold
fold change in IL-8 gene expression, geometric mean (C.I.) [1, 18]: 0.03 (0.02-0.05)^∗ fold
fold change in MMP-8 gene expression, geometric mean (C.I.) [1, 18]: 0.78 (0.38-1.61) fold
fold change in TNF-α gene expression, geometric mean (C.I.) [1, 18]: 0.39 (0.23-0.66)^∗ fold
downregulation of IL-1β gene expression ([1]; substrate 1 M): 2 fold
downregulation of IL-6 gene expression ([1]; substrate 1 M): 3 fold
downregulation of TNF-α gene expression ([1]; substrate 1 M): 2.5 fold
relative proportion of beneficial or commensal species in biofilm ([2]; Table 1a, substrate 1 M): 92.72 (+/- 4.39)^∗ % (Geq/mL)
relative proportion of cariogenic pathogens in biofilm ([2]; Table 1a, substrate 1 M): 5.82 (+/- 3.94) % (Geq/mL)
relative proportion of periodontal pathogens in biofilm ([2]; Table 1a, substrate 1 M): 1.46 (+/- 0.64)^∗ % (Geq/mL)
relative proportion of beneficial or commensal species in biofilm [2, 19]: 92.72±4.39 % (Geq/mL)
relative proportion of cariogenic pathogens in biofilm [2, 19]: 5.82±3.94 % (Geq/mL)
relative proportion of periodontal pathogens in biofilm [2, 19]: 1.46±0.64 % (Geq/mL)
relative proportion of beneficials/commensals in biofilm [2, 20]: 64.14 (+/- 9.81) % (Geq/mL)
relative proportion of cariogenic pathogens in biofilm [2, 20]: 0.21 (+/- 0.08) % (Geq/mL)
relative proportion of periodontal pathogens in biofilm [2, 20]: 35.65 (+/- 9.88) % (Geq/mL)
absolute abundance of A. naeslundii (An), mean ± SD log (Geq/mL) ([3]; substrate 1% (w/v)): 7.75 ± 0.24 log (Geq/mL)
absolute abundance of A. naeslundii (An), mean ± SD log (Geq/mL) ([3]; substrate 1 M in PBS, n = 3): 4.86 ± 0.19^∗ log (Geq/mL)
absolute abundance of P. gingivalis (Pg), mean ± SD log (Geq/mL) ([4]; substrate 1% (w/v)): 6.93 ± 0.10 log (Geq/mL)
absolute abundance of P. gingivalis (Pg), mean ± SD log (Geq/mL) ([4]; substrate 1 M in PBS, n = 3): 4.26 ± 0.51^∗ log (Geq/mL)
absolute abundance of P. intermedia (Pi), mean ± SD log (Geq/mL) ([5]; substrate 1% (w/v)): 8.13 ± 0.25 log (Geq/mL)
absolute abundance of P. intermedia (Pi), mean ± SD log (Geq/mL) ([5]; substrate 1 M in PBS, n = 3): 4.05 ± 0.61^∗ log (Geq/mL)
absolute abundance of S. gordonii, mean ± SD log (Geq/mL) ([6]; substrate 1% (w/v)): 8.4 ± 0.11 log (Geq/mL)
absolute abundance of S. gordonii, mean ± SD log (Geq/mL) ([6]; substrate 1 M in PBS, n = 3): 9.31 ± 0.41 log (Geq/mL)
absolute abundance of S. sobrinus, mean ± SD log (Geq/mL) ([7]; substrate 1% (w/v)): 5.27 ± 0.24 log (Geq/mL)
absolute abundance of S. sobrinus, mean ± SD log (Geq/mL) ([7]; substrate 1 M in PBS, n = 3): 7.82 ± 0.11^∗ log (Geq/mL)
absolute abundance of S. mitis, mean ± SD log (Geq/mL) ([8]; substrate 1% (w/v)): 2.65 ± 0.00 log (Geq/mL)
absolute abundance of S. mitis, mean ± SD log (Geq/mL) ([8]; substrate 1 M in PBS, n = 3): 3.17 ± 0.75 log (Geq/mL)
absolute abundance of S. oralis, mean ± SD log (Geq/mL) ([9]; substrate 1% (w/v)): 6.6 ± 0.17 log (Geq/mL)
absolute abundance of S. oralis, mean ± SD log (Geq/mL) ([9]; substrate 1 M in PBS, n = 3): 7.45 ± 0.46 log (Geq/mL)
absolute abundance of A. actinomycetemcomitans (Aa), mean ± SD log (Geq/mL) ([10]; substrate 1% (w/v)): 9.44 ± 0.41 log (Geq/mL)
absolute abundance of A. actinomycetemcomitans (Aa), mean ± SD log (Geq/mL) ([10]; substrate 1 M in PBS, n = 3): 7.87 ± 0.04^∗ log (Geq/mL)
absolute abundance of A. viscosus (Av), mean ± SD log (Geq/mL) ([11]; substrate 1% (w/v)): 7.89 ± 0.13 log (Geq/mL)
absolute abundance of A. viscosus (Av), mean ± SD log (Geq/mL) ([11]; substrate 1 M in PBS, n = 3): 6.78 ± 0.41 log (Geq/mL)
absolute abundance of S. sanguinis, mean ± SD log (Geq/mL) ([12]; substrate 1% (w/v)): 8.99 ± 0.54 log (Geq/mL)
absolute abundance of S. sanguinis, mean ± SD log (Geq/mL) ([12]; substrate 1 M in PBS, n = 3): 5.80 ± 1.09 log (Geq/mL)
absolute abundance of S. salivarius, mean ± SD log (Geq/mL) ([13]; substrate 1% (w/v)): 2.65 ± 0.00 log (Geq/mL)
absolute abundance of S. salivarius, mean ± SD log (Geq/mL) ([13]; substrate 1 M in PBS, n = 3): 6.95 ± 0.14^∗ log (Geq/mL)
absolute abundance of F. nucleatum (Fn), mean ± SD log (Geq/mL) ([14]; substrate 1% (w/v)): 9.39 ± 0.42 log (Geq/mL)
absolute abundance of F. nucleatum (Fn), mean ± SD log (Geq/mL) ([14]; substrate 1 M in PBS, n = 3): 5.49 ± 0.46^∗ log (Geq/mL)
absolute abundance of S. mutans, mean ± SD log (Geq/mL) ([15]; substrate 1% (w/v)): 7.48 ± 0.14 log (Geq/mL)
absolute abundance of S. mutans, mean ± SD log (Geq/mL) ([15]; substrate 1 M in PBS, n = 3): 8.00 ± 0.56 log (Geq/mL)
absolute abundance of V. parvula (VP), mean ± SD log (Geq/mL) ([16]; substrate 1% (w/v)): 9.92 ± 0.20 log (Geq/mL)
reduction of V. parvula numbers in comparison to the control ([16]; substrate 1 M): ~ 0.7 log(Geq/mL)
absolute abundance of V. parvula (VP), mean ± SD log (Geq/mL) ([16]; substrate 1 M in PBS, n = 3): 9.45 ± 0.15^∗ log (Geq/mL)
